According to the supplement of paper PMC10307832:

Legend:
Experiment in all cases: relative viability (nuclei count vs DMSO), 5 days (fraction); higher = more cells survive
Sulindac = compound: CC1=C(CC(=O)O)c2cc(F)ccc2/C1=C\c1ccc([S+](C)[O-])cc1 [Sulindac]
Procedure, shortened: (§1)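 Following overnight incubation at 37 °C, lung cancer cell lines in 1536-well plates were pinned with five library-drug doses (not always all listed) in √10 steps on vehicle-anchored plates. The cells then spent 5 days without medium change before a combined fix, permeabilisation and Hoechst stain, 4× imaging and MetaXpress nuclear counts. Viability is the treated-to-vehicle ratio of nuclei, taken as the median across plates. Only plates with control CV below 25% and at least one doubling passed.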

Staurosporine = compound: CN[C@@H]1C[C@H]2O[C@@](C)([C@@H]1OC)n1c3ccccc3c3c4c(c5c6ccccc6n2c5c31)C(=O)NC4 [Staurosporine]
Procedure, shortened: as §1

5-Fluorouracil = compound: O=c1[nH]cc(F)c(=O)[nH]1 [5-Fluorouracil]
Procedure, shortened: as §1

[1] = compound: CN[C@@H]1C[C@H]2O[C@@](C)([C@@H]1OC)n1c3ccccc3c3c4c(c5c6ccccc6n2c5c31)C(=O)NC4 [Staurosporine] + C[C@@H](Oc1cc(-c2cnn(C3CCNCC3)c2)cnc1N)c1c(Cl)ccc(F)c1Cl [Crizotinib] (partner 1 µM)
Procedure, shortened: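 Lung cancer cell lines, seeded in 1536-well plates, were treated the following day by pin tool with a single drug or with five library-drug doses (not always all listed) in √10 steps on top of a fixed anchor-drug dose. Cells were fixed and nuclei stained in one step after 5 days, and nuclei were counted. Relative viability is the nuclei count for treated wells divided by that for vehicle wells, reported as medians of duplicate plates.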

Row | Cell Line | relative viability (Sulindac; 0.08 µM) | relative viability (Sulindac; 0.253 µM) | relative viability (Sulindac; 0.8 µM) | relative viability (Sulindac; 2.53 µM) | relative viability (Sulindac; 8 µM) | relative viability (Staurosporine; 0.005 µM) | relative viability (Staurosporine; 0.01581 µM) | relative viability (Staurosporine; 0.05 µM) | relative viability (Staurosporine; 0.1581 µM) | relative viability (Staurosporine; 0.5 µM) | relative viability (5-Fluorouracil; 0.02 µM) | relative viability (5-Fluorouracil; 0.2 µM) | relative viability (5-Fluorouracil; 0.6325 µM) | relative viability (5-Fluorouracil; 2 µM) | relative viability ([1]; first compound 0.005 µM) | relative viability ([1]; first compound 0.01581 µM) | relative viability ([1]; first compound 0.05 µM) | relative viability ([1]; first compound 0.1581 µM) | relative viability ([1]; first compound 0.5 µM)
1 | HCC-44 | 0.986 | 1.01 | 1.02 | 0.935 | 1.04 | 1.01 | 0.384 | 0.404 | 0.228 | 0.14 | 1.05 | 0.941 | 0.55 | 0.349 | 0.531 | 0.508 | 0.197 | 0.0883 | 0.0867
2 | HCC-78 | 1.14 | 0.958 | 0.759 | 0.913 | 0.961 | 0.88 | 0.666 | 0.586 | 0.363 | 0.353 | 0.896 | 1.13 | 0.603 | 0.404 | 0.358 | 0.236 | 0.244 | 0.261 | 0.239
3 | HCC-366 | 1.2 | 1.08 | 0.757 | 1 | 1.08 | 1.05 | – | 0.911 | 0.15 | 0.0345 | 1.03 | 1.02 | 0.687 | 0.138 | 0.972 | – | 0.171 | 0.0224 | 0.0156
4 | HCC-827 | 0.99 | 1.09 | 0.97 | 0.957 | 1.09 | 1.03 | 0.701 | 0.723 | 0.48 | 0.36 | 0.855 | 1.01 | 0.667 | 0.469 | 0.927 | 0.803 | 0.583 | 0.575 | 0.442
5 | HOP-62 | 1.17 | 1.13 | 0.926 | 1.13 | 1.09 | 0.83 | 0.298 | 0.183 | 0.138 | 0.109 | 1.03 | 1 | 0.971 | 0.877 | 1.02 | 0.741 | 0.134 | 0.144 | 0.0781
6 | IA-LM | 0.835 | 1.07 | – | 1.02 | 1.01 | 0.46 | 0.177 | 0.17 | 0.107 | 0.0831 | 0.939 | 0.519 | 0.295 | 0.241 | 0.253 | 0.073 | 0.319 | 0.148 | 0.0488
7 | LC-2-ad | 1.19 | 1.03 | 0.845 | 0.978 | 1.1 | 0.929 | 0.256 | 0.381 | 0.17 | 0.129 | 0.987 | 0.946 | 0.53 | 0.298 | 0.442 | 0.368 | 0.266 | 0.167 | 0.116
8 | LCLC-97TM1 | 1.05 | 1.04 | 0.925 | 0.813 | 1.17 | 1.02 | 0.282 | 0.27 | 0.265 | 0.212 | 0.988 | 1.07 | 0.729 | 0.533 | 0.277 | 0.24 | 0.234 | 0.296 | 0.257
9 | LCLC-103H | 1.08 | 1.09 | 0.902 | 0.955 | 1.06 | 0.973 | 0.336 | 0.393 | 0.233 | 0.234 | 1.05 | 0.976 | 0.889 | 0.577 | 1.1 | 0.741 | 0.564 | 0.318 | 0.258
10 | LK-2 | 1.23 | 1.06 | 0.78 | 0.738 | 1.21 | 1.17 | 1.06 | 0.874 | 0.366 | 0.243 | 1.16 | 0.989 | 0.8 | 0.574 | 0.18 | 0.16 | 0.129 | 0.0689 | 0.0939
11 | LOU-NH91 | 0.989 | 0.982 | 0.944 | 0.922 | 1.11 | 0.921 | 0.603 | 0.613 | 0.294 | 0.275 | 0.99 | 1.1 | 0.734 | 0.39 | 0.721 | 0.594 | 0.493 | 0.413 | 0.325
12 | LU99A | 1.02 | 0.982 | 0.922 | 0.845 | 1.09 | 0.912 | 0.569 | 0.422 | 0.211 | 0.131 | 0.943 | 0.999 | 0.845 | 0.624 | 0.391 | 0.308 | 0.253 | 0.157 | 0.118
13 | NCI-H522 | 0.911 | 1.19 | 0.834 | 0.912 | 1.14 | 1 | 0.686 | 0.782 | 0.501 | 0.437 | 1.03 | 1 | 0.83 | 0.855 | – | – | – | – | –
14 | NCI-H1395 | 1.11 | 0.968 | 0.938 | 0.804 | 1.14 | 0.609 | 0.364 | 0.488 | 0.331 | 0.253 | 0.899 | 1.03 | 0.937 | 0.826 | – | – | – | – | –
15 | NCI-H1623 | 0.896 | 0.963 | 0.936 | 0.961 | 1 | 1.14 | 1.12 | 1.08 | 0.932 | 0.519 | 0.581 | 0.355 | 0.283 | 0.267 | – | – | – | – | –
16 | NCI-H1648 | 0.953 | 0.793 | 0.561 | 0.923 | 0.942 | 0.807 | 0.281 | 0.244 | 0.324 | 0.274 | 0.922 | 0.871 | 0.56 | 0.354 | – | – | – | – | –
17 | NCI-H1793 | 0.904 | 0.993 | 0.722 | 0.953 | 0.908 | 0.921 | – | 0.628 | 0.205 | 0.152 | 0.968 | 1.18 | 0.985 | 0.554 | – | – | – | – | –
18 | NCI-H2342 | 0.912 | 0.946 | 0.843 | 0.99 | 0.99 | 1.09 | 0.652 | 0.525 | 0.461 | 0.36 | 0.955 | 1.02 | 0.894 | 0.783 | – | – | – | – | –
19 | SW 900 | 0.644 | 0.939 | – | 0.601 | 0.928 | 0.624 | 0.368 | 0.297 | 0.19 | 0.102 | 0.693 | 0.883 | 0.859 | 0.476 | – | – | – | – | –
